Laboratory results from the NIST ThermoML archive (doi:10.1016/j.jct.2013.08.018).
Values joined by “and” are separate entries in the source; they are usually repeats but may differ in a detail not shown here. Equal values may be shown once. Numbers after ± are expanded uncertainties.

Assay: osmotic coefficient (dimensionless); mn = molality of the nth substance listed, in mol/kg
Settings: 298.15 K, 101 kPa, Liquid
[1] = commercial osmometer Knauer K-7000, m1 = 1
[2] = commercial osmometer Knauer K-7000, m1 = 3
[3] = commercial osmometer Gonotec 070, m1 = 0.5
[4] = commercial osmometer Gonotec 070, m1 = 1

Row | SMILES | osmotic coefficient [1] | osmotic coefficient [2] | osmotic coefficient [3] | osmotic coefficient [4]
1 | N.N.O=S(=O)(O)O [ammonium sulfate] + O | 0.643 and 0.64 and 0.641 | 0.629 and 0.627 and 0.625 |  | 
2 | [Br-].[Li+] [lithium bromide] + O |  |  | 0.978 and 0.97 | 1.03 and 1.04
3 | [Cl-].[Li+] [lithium chloride] + O |  |  | 0.928 and 0.955 | 0.987 and 0.978
4 | [I-].[Li+] [lithium iodide] + O |  |  | 1 and 1.01 | 1.07 and 1.01
5 | [Br-].[K+] [potassium bromide] + O |  |  | 0.907 and 0.905 | 0.919 and 0.917
6 | [Cl-].[K+] [potassium chloride] + O | 0.895 and 0.897 | 0.938 and 0.935 and 0.936 | 0.905 ± 0.011 | 0.915 ± 0.01
7 | [I-].[K+] [potassium iodide] + O |  |  | 0.916 and 0.923 | 0.934 and 0.927
8 | O=[N+]([O-])[O-].[K+] [potassium nitrate] + O | 0.746 and 0.744 and 0.747 | 0.599 and 0.597 and 0.598 |  | 
9 | [Br-].[Na+] [sodium bromide] + O |  |  | 0.953 and 0.934 | 0.959 and 0.971
10 | [Cl-].[Na+] [sodium chloride] + O | 0.927 and 0.925 | 1.05 |  | 
11 | [I-].[Na+] [sodium iodide] + O |  |  | 0.955 and 0.95 | 0.985 and 1
12 | O=[N+]([O-])[O-].[Na+] [sodium nitrate] + O | 0.854 and 0.859 | 0.805 and 0.806 | 0.895 and 0.874 | 0.865 and 0.867
13 | O=S(=O)([O-])[O-].[Na+].[Na+] [sodium sulfate] + O |  |  | 0.717 and 0.69 | 0.658 and 0.642
